Source: US20180312493A1, “Antibiotic Compounds, Pharmaceutical Formulations Thereof And Methods And Uses Therefor” (Simon Fraser University, priority 2015, published 2018)
≈ marks a conversion by molar mass, not a printed value.

Tests used:
[1] = target: T1, MRSA Pyk (Staphylococcus aureus, UniProt Q6GG09); experiment: MRSA pyruvate kinase (PK) activity, continuous LDH-coupled assay; assay type: biochemical, methicillin resistant S. aureus (MRSA252)
T1 construct: made in house; host or cells: E. coli BL-21 (DE3)
How it was run: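 His-tagged MRSA PK (strain Sanger 252) and human PK isoforms expressed in E. coli BL-21 (DE3) and Ni-NTA purified, used at 15 nM in an LDH-coupled assay following NADH oxidation at 340 nm, 30° C, up to 5 min, ≤1% DMSO. IC50 from four-parameter variable-slope fit; Ki with PEP 2-20 mM, ADP fixed 2 mM, inhibitor 0-400 nM.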

[2] = system: K. pneumoniae (C238); experiment: In vitro susceptibility, broth microdilution (MIC); assay type: cell-based; conditions: Klebsiella pneumoniae; K. pneumoniae (C238); read-out: Antimicrobial activity (MIC) K. pneumoniae
How it was run: (§1)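 CLSI 2-fold serial broth microdilution; K. pneumoniae C238 grown in L-broth, S. aureus ATCC 29213 in Mueller Hinton broth, plates incubated 18–24 h at 37 °C. MIC taken as lowest concentration giving complete growth inhibition by OD600 versus compound-free wells, background-subtracted.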

[3] = system: S. aureus (ATCC29213); experiment: In vitro susceptibility, broth microdilution (MIC); assay type: cell-based; conditions: Staphylococcus aureus; S. aureus ATCC29213; 18-24 h, 37 C; read-out: Antimicrobial activity (MIC) S. aureus ATCC29213
How it was run: as §1

[4] = system: VRE#2 (2010A); experiment: In vitro susceptibility, broth microdilution (MIC); assay type: cell-based, vancomycin resistant Enterococci; conditions: VRE#2 (2010A); read-out: Antimicrobial activity (MIC) VRE#2
How it was run: (§2)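 MIC determined by CLSI 2-fold broth microdilution in cation-adjusted Mueller–Hinton broth at ~2.5×10^5 CFU/ml, final compound 0.031–64 μg/ml, 18–24 h at 37 °C. MIC is the lowest concentration giving complete growth inhibition by background-corrected OD600 versus compound-free wells; duplicate or triplicate wells, replicated at least twice.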

[5] = system: A. baumannii (ATCC 19606); experiment: In vitro susceptibility, broth microdilution (MIC); assay type: cell-based; conditions: Acinetobacter baumannii, ATCC19606; A. baumannii ATCC 19606 (values without asterisk); read-out: Antimicrobial activity (MIC) A. baumannii
Text: (§3) Epidemic methicillin resistant S. aureus (MRSA) strain sequenced at the Sanger Centre (MRSA252, NRS71) was obtained from NARSA (Network on Antimicrobial Resistance in S. aureus). Methicillin sensitive S. aureus (ATCC 29213 and 25923), methicillin resistant S. aureus (ATCC BAA-1762), and Salmonella typhimurium (ATCC BAA-185) were obtained from ATCC, The Global Bioresource Center. Acinetobacter baumannii (ATCC 19606 and ATCC 17978), Klebsiella pneumonia (C238), vancomycin resistant Enterococci #2 (2010A) (VRE#2), MRSA (USA400, MW2) and Pseudomonas aeruginosa (PA0-1) were obtained from the laboratory of Dr B. B. Finlay at the University of British Columbia (Vancouver, Canada).
(§4) The antimicrobial activities of PK inhibitor candidates were determined using the 96-well microtiter standard 2-fold serial broth microdilution method as described by CLSI (formerly NCCLS) with the various gram-positive and gram-negative bacteria species mentioned above. Bacteria from a single colony were grown, overnight in either BHI Broth (VRE), mueller hinton broth (S. aureus 29213; MRSA USA400, A. baumannii 19606, MRSA BAA-1762) or L-broth (P. aeruginosa, S. typhimurium, K. pneumonia and A. baumannii 17978). Each compound was prepared in DMSO with 2-fold serial dilutions to give a final concentration of, 0.031 to 64 μg/ml. 10 μl of the compound solution was then added, in duplicate, to either, 190 μl of cation adjusted mueller hinton broth (CAMHB) or 190 μl CAMHB containing ˜2.5×10^5 CFU/ml of bacteria (final compound concentration 0.031 to 64 μg/ml). Culture plates were incubated for 18-24 h at 37° C., and optical density at 600 nm (OD600) was measured using a Benchmark Plus™ microplate spectrophotometer (Bio-Rad™). The absorbance control values for the series containing CAMHB and inhibitor were subtracted as background from the corresponding infected wells. Minimal inhibitory concentration (MIC) was defined as the lowest concentration of test compound leading to complete inhibition of cell growth in relation to compound-free control wells as determined by optical density. Vancomycin, methicillin and ciprofloxicin were used as reference compounds. All assays were run in triplicate or duplicate. Experiments were replicated at least twice to verify reproducibility using the above conditions.

[6] = system: A. baumannii (ATCC 17978); experiment: In vitro susceptibility, broth microdilution (MIC); assay type: cell-based; conditions: Acinetobacter baumannii, ATCC17978; A. baumannii ATCC 17978 (values marked *); read-out: Antimicrobial activity (MIC) A. baumannii
Text: as §3, §4

[7] = system: MRSA (ATCC BAA-1762); experiment: In vitro susceptibility, broth microdilution (MIC); assay type: cell-based, methicillin resistant S. aureus; conditions: Staphylococcus aureus; MRSA ATCC BAA-1762; read-out: Antimicrobial activity (MIC) MRSA ATCC BAA1762
How it was run: as §2

MIC [6]	SMILES	IC50 [1]	MIC [2]	MIC [3]	MIC [4]	MIC [5]	MIC [7]
	CN1CCC(CCNC(=O)c2c(/C=C/c3ccc(Cl)cc3)[nH]c3cc(Br)ccc23)CC1 [Compound 40, (E)-6-Bromo-2-(4-chlorostyryl)-N-(2-(1-methylpiperidin-4-yl)ethyl)-1 H-indole-3-carboxamide]	100 to 1000 nM	16 µg/mL (≈ 31.9 µM)	8 µg/mL (≈ 16 µM)	8 µg/mL (≈ 16 µM)	> 64 µg/mL	
	CN(C)CCNC(=O)c1c(-c2cc3cc(Cl)ccc3[nH]2)[nH]c2cc(Br)ccc12 [Compound 73, 6-Bromo-5′-chloro-N-(2-(dimethylamino)ethyl)-1H,1′H-[2,2′-biindole]-3-carboxamide]	< 100 nM	8 µg/mL (≈ 17.4 µM)	8 µg/mL (≈ 17.4 µM)	8 µg/mL (≈ 17.4 µM)	64 µg/mL (≈ 139 µM)	
64 µg/mL (≈ 115 µM)	NC(=O)N1CCC(NCCNC(=O)c2c(-c3cc4cc(Cl)ccc4[nH]3)[nH]c3cc(Br)ccc23)CC1 [Compound 131, 6-bromo-N-(2-(1-carbamoylpiperidin-4-ylamino)ethyl)-5′-chloro-1H,1′H-2,2′-biindole-3-carboxamide]			> 64 µg/mL			
> 64 µg/mL	COC(CNC(=O)c1c(-c2cc3cc(Cl)ccc3[nH]2)[nH]c2cc(Br)ccc12)OC [Compound 134, 6-Bromo-5′-chloro-N-(2,2-dimethoxyethyl)-1H,1′H-[2,2′-biindole]-3-carboxamide]			> 64 µg/mL			
> 64 µg/mL	CCOC(CCCNC(=O)c1c(-c2cc3cc(Cl)ccc3[nH]2)[nH]c2cc(Br)ccc12)OCC [Compound 135, 6-Bromo-5′-chloro-N-(4,4-diethoxybutyl)-1H,1′H-[2,2′-biindole]-3-carboxamide]			> 64 µg/mL			
	CCNCCNC(=O)c1c(-c2cc3cc(Cl)ccc3[nH]2)[nH]c2cc(Br)ccc12 [Compound 137, 6-Bromo-5′-chloro-N-(2-(ethylamino)ethyl)-1H,1′H-[2,2′-biindole]-3-carboxamide]	< 100 nM		8 µg/mL (≈ 17.4 µM)	8 µg/mL (≈ 17.4 µM)	32 µg/mL (≈ 69.6 µM)	8 µg/mL (≈ 17.4 µM)
	CC(C)(C)NCCNC(=O)c1c(-c2cc3cc(Cl)ccc3[nH]2)[nH]c2cc(Br)ccc12 [Compound 138, 6-Bromo-N-(2-(tert-butylamino)ethyl)-5′-chloro-1H,1′H-[2,2′-biindole]-3-carboxamide]	< 100 nM		4 µg/mL (≈ 8.2 µM)	4 µg/mL (≈ 8.2 µM)	64 µg/mL (≈ 131 µM)	8 µg/mL (≈ 16.4 µM)
> 64 µg/mL	O=C(NCCN1CCNCC1=O)c1c(-c2cc3cc(Cl)ccc3[nH]2)[nH]c2cc(Br)ccc12 [Compound 143, 6-bromo-5′-chloro-N-(2-(2-oxopiperazin-1-yl)ethyl)-1H,1′H-[2,2′-biindole]-3-carboxamide]			> 64 µg/mL			
	C[n+]1cccc(CNC(=O)c2c(-c3cc4cc(Cl)ccc4[nH]3)[nH]c3cc(Br)ccc23)c1 [Compound 148, 3-((6-bromo-5′-chloro-1H,1′H-[2,2′-biindole]-3-carboxamido)methyl)-1-methylpyridin-1-ium]	< 100 nM		8 µg/mL	16 µg/mL	> 64 µg/mL	16 µg/mL
	C[n+]1ccc(CCNC(=O)c2c(-c3cc4cc(Cl)ccc4[nH]3)[nH]c3cc(Br)ccc23)cc1 [Compound 149, 4-(2-(6-bromo-5′-chloro-1H,1′H-[2,2′-biindole]-3-carboxamido)ethyl)-1-methylpyridin-1-ium]	< 100 nM		16 µg/mL	16 µg/mL	> 64 µg/mL	16 µg/mL
